Source: ChEMBL document CHEMBL1138587, “A new class of 5-HT2B antagonists possesses favorable potency, selectivity, and rat pharmacokinetic properties” (Bioorg Med Chem Lett, 2009)
Converted amounts (≈) assume the structure as drawn. The source made the active and inactive calls. The rule behind the calls is not given here.

Key:
[1] = molecular target: T1, 5-hydroxytryptamine receptor 2B (Homo sapiens, UniProt P41595); experiment: Antagonist activity at 5-HT2B receptor expressed in CHOK1 cells assessed as inhibition of serotonin-induced intracellular Ca2+ flux by aequorin luminescence assay; assay type: functional, cell-based, CHO-K1
[2] = molecular target: T1, 5-hydroxytryptamine receptor 2B; experiment: Antagonist activity at 5-HT2B receptor expressed in CHOK1 cells assessed as inhibition of serotonin-induced intracellular Ca2+ flux by aequorin luminescence assay in presence of 4% human serum albumin; assay type: functional, cell-based, CHO-K1
[3] = Protein binding in plasma by dialysis method; assay type: ADME, cell-free; settings: read-out: PPB (converted)
[4] = Oral bioavailability in Wistar rat; assay type: ADME, organism-based; settings: in vivo
[5] = AUC in Wistar rat at 10 mg/kg, po; assay type: ADME, organism-based; set-up: dose 10 mg/kg, route oral; settings: plasma
[6] = Selectivity for 5-HT2B receptor over 5-HT2A receptor
[7] = Selectivity for 5-HT2B receptor over 5-HT2C receptor
[8] = system: Rattus norvegicus; experiment: Hepatic blood flow in Wistar rat at 1 mg/kg, iv; assay type: ADME, organism-based, Liver; set-up: dose 1 mg/kg, route intravenous; settings: in vivo
[9] = Cmax in Wistar rat 10 mg/kg, po; assay type: ADME, organism-based; set-up: dose 10 mg/kg, route oral; settings: in vivo
[10] = AUC in Sprague-Dawley rat at 10 mg/kg, po; assay type: ADME, organism-based; set-up: dose 10 mg/kg, route oral; settings: plasma
[11] = Oral bioavailability in Sprague-Dawley rat; assay type: ADME, organism-based; settings: in vivo
[12] = Inhibition of dopamine D4.2 receptor at 10 uM
[13] = Cmax in Sprague-Dawley rat 10 mg/kg, po; assay type: ADME, organism-based; set-up: dose 10 mg/kg, route oral; settings: in vivo
[14] = Aqueous solubility of compound at pH 7.4; assay type: physicochemical; settings: aqueous medium
[15] = molecular target: 5-hydroxytryptamine receptor 2A (Homo sapiens) (UniProt P28223); experiment: Antagonist activity at 5-HT2A receptor up to 10 uM by FLIPR assay; assay type: functional
[16] = molecular target: T2, 5-hydroxytryptamine receptor 2C (Homo sapiens) (UniProt P28335); experiment: Antagonist activity at 5-HT2C receptor up to 10 uM by FLIPR assay; assay type: functional
T2 sequence (whole entry): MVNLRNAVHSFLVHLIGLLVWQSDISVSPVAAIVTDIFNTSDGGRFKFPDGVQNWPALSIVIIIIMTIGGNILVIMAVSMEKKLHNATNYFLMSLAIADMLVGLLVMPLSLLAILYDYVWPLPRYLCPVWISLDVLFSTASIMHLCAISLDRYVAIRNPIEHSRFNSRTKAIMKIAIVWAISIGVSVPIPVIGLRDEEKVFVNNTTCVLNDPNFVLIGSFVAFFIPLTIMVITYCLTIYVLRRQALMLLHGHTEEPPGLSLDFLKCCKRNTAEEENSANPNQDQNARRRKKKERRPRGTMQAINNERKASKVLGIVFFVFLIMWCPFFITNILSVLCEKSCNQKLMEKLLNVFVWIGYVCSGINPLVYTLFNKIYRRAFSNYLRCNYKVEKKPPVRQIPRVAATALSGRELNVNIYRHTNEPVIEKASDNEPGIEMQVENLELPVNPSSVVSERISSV

T1 sequence (P41595 whole entry): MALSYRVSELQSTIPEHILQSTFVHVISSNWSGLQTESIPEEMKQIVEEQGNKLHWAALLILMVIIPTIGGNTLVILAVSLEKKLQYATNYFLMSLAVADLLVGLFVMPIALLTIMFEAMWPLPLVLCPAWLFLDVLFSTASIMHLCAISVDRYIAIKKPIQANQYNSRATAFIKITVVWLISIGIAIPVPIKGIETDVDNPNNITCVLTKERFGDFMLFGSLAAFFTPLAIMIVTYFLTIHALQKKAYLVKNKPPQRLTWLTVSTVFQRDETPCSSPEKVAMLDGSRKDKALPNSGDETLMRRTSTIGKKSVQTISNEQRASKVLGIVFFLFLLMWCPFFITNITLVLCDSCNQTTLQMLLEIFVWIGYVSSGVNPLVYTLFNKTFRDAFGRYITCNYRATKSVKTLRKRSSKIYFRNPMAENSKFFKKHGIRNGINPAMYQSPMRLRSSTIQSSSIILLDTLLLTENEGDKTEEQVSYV
5-hydroxytryptamine receptor 2A (Homo sapiens), sequence (P28223 whole entry): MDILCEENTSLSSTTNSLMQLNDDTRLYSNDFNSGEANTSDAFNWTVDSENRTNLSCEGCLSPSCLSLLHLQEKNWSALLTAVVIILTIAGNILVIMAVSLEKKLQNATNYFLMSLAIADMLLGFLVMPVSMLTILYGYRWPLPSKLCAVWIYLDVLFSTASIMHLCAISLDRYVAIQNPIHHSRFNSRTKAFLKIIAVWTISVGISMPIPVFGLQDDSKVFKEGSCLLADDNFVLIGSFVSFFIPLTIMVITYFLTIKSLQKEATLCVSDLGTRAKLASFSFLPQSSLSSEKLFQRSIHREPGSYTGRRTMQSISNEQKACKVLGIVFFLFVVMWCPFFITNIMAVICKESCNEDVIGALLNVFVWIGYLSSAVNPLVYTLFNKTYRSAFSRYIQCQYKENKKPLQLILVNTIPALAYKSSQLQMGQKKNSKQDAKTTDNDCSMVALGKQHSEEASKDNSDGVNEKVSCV

SMILES: Cn1c(C2CCN(C(=O)c3ccc(-c4ccccc4)cc3)CC2)nc2ccccc21
- IC50 [1]: 80 nM
- IC50 [2]: 10000 nM

SMILES: O=C(c1cnc(-c2ccccc2)nc1)N1CCC(c2nc3ccccc3[nH]2)CC1
- IC50 [1]: 2.5 nM
- fraction unbound [3]: 0.009
- IC50 [2]: 710 nM

SMILES: O=S(=O)(c1ccc(-c2ccccc2)cc1)N1CCC(c2nc3ccccc3[nH]2)CC1
- IC50 [1]: 1.9 nM
- IC50 [2]: 840 nM

SMILES: O=C(c1ccc(-c2cccnc2)cc1)N1CCC(c2nc3ccccc3[nH]2)CC1
- IC50 [1]: 340 nM
- IC50 [2]: > 14000 nM

SMILES: O=C(c1ccc(-c2ncccn2)cc1)N1CCC(c2nc3ccccc3[nH]2)CC1
- IC50 [1]: 120 nM
- IC50 [2]: > 2700 nM

SMILES: N#Cc1cc(CN2CCC(Nc3ncnc4sc(Cl)cc34)CC2)ccc1F [PRX-08066 FREE BASE]
- bioavailability [4]: 17%
- IC50 [1]: 3.5 nM
- fraction unbound [3]: 0.01
- AUC [5]: 500 ng·h/mL
- Selectivity ratio [6]: > 3000
- IC50 [2]: 270 nM
- Selectivity ratio [7]: > 3000
- QH [8]: 82%
- Cmax [9]: 240 ng/mL

SMILES: COc1ccc(-c2ccc(C(=O)N3CCC(c4nc5ccccc5[nH]4)CC3)cc2)cc1
- IC50 [1]: 3.4 nM
- IC50 [2]: 3200 nM

SMILES: O=C(c1ccccc1)N1CCC(c2nc3ccccc3[nH]2)CC1
- IC50 [1]: > 10000 nM
- IC50 [2]: > 10000 nM

SMILES: O=C(c1ccc(-c2ccccc2)cc1)N1CCC(c2nc3ccccc3o2)CC1
- IC50 [1]: 1500 nM
- IC50 [2]: > 20000 nM

SMILES: CC(C)c1cc(-c2ccc(F)c3ccccc23)nc(N)n1
- bioavailability [4]: 10%
- IC50 [1]: 0.7 nM
- fraction unbound [3]: 0.001
- AUC [5]: 810 ng·h/mL
- Selectivity ratio [6]: 2000
- IC50 [2]: 19 nM
- Selectivity ratio [7]: 92
- QH [8]: 29%
- Cmax [9]: 470 ng/mL

SMILES: O=C(c1ccc(-c2ccc(OC(F)(F)F)cc2)cc1)N1CCC(c2nc3ccccc3[nH]2)CC1
- IC50 [1]: 95 nM
- IC50 [2]: 16000 nM

SMILES: O=S(=O)(c1ccc(-c2ccccc2)cc1)N1CCC(c2ncc[nH]2)CC1
- IC50 [1]: 0.3 nM
- IC50 [2]: 32 nM

SMILES: O=S(=O)(c1ccc(-c2ccccc2)cc1)N1CCC(Cc2nc3ccccc3[nH]2)CC1
- IC50 [1]: 1100 nM
- IC50 [2]: > 23000 nM

SMILES: O=C(c1ccc(Br)cc1)N1CCC(c2nc3ccccc3[nH]2)CC1
- IC50 [1]: > 13000 nM
- IC50 [2]: > 26000 nM

SMILES: O=C(c1ccc(-c2ccccc2)cc1)N1CCC(c2nc3ccccc3[nH]2)CC1
- IC50 [1]: 2.4 nM
- fraction unbound [3]: 0.001
- Selectivity ratio [6]: > 10000
- IC50 [2]: 1200 nM
- Selectivity ratio [7]: > 10000
- AUC [10]: 25000 ng·h/mL
- bioavailability [11]: 130%
- inhibition [12]: 99%
- Cmax [13]: 5000 ng/mL
- solubility [14]: 3 µg/mL (≈ 7.86 µM)
- Activity [15]: inactive
- Activity [16]: inactive

SMILES: CCOc1nc(-c2ccccc2)ncc1C(=O)N1CCC(c2nc3ccccc3[nH]2)CC1
- IC50 [1]: 6 nM
- IC50 [2]: 910 nM

SMILES: O=C(c1ccc(-c2ccccc2)cc1)N1CCC(c2ncc[nH]2)CC1
- fraction unbound [3]: 0.001

SMILES: O=C(c1ccc(N2CCOCC2)cc1)N1CCC(c2nc3ccccc3[nH]2)CC1
- IC50 [1]: 2300 nM
- IC50 [2]: > 26000 nM

SMILES: O=S(=O)(c1ccc(-c2ccccc2)cc1)N1CCC(Cc2ncc[nH]2)CC1
- IC50 [1]: 6.5 nM
- IC50 [2]: 990 nM

SMILES: O=S(=O)(c1ccc(-c2ccc(F)cc2)cc1)N1CCC(c2ncc[nH]2)CC1
- IC50 [1]: 0.6 nM
- IC50 [2]: 30 nM
- AUC [10]: 2300 ng·h/mL
- bioavailability [11]: 54%
- Cmax [13]: 870 ng/mL

SMILES: O=C(c1ccc(-c2ccccc2)cn1)N1CCC(c2nc3ccccc3[nH]2)CC1
- IC50 [1]: 12 nM
- IC50 [2]: > 2400 nM

SMILES: O=C(c1ccc(C2CCCCC2)cc1)N1CCC(c2nc3ccccc3[nH]2)CC1
- IC50 [1]: 31 nM
- IC50 [2]: 1100 nM

SMILES: Cc1cc2c(cc1Cl)N(C(=O)Nc1cccc3ncccc13)CC2
- IC50 [1]: 13 nM
- Selectivity ratio [6]: 7
- IC50 [2]: 64 nM
- Selectivity ratio [7]: 0.5

SMILES: O=C(c1ccc(-c2ccncc2)cc1)N1CCC(c2nc3ccccc3[nH]2)CC1
- IC50 [1]: > 1300 nM
- IC50 [2]: > 13000 nM

SMILES: NC(=O)C1CCN(C(=O)c2ccc(-c3ccccc3)cc2)CC1
- IC50 [1]: > 6500 nM

SMILES: O=C(c1ccc(-c2ccccc2)cc1)N1CCN(c2nc3ccccc3[nH]2)CC1
- IC50 [1]: 6900 nM
- IC50 [2]: > 25000 nM

SMILES: O=C(c1ccc(-c2ccccc2)cc1)N1CCC(Cc2ncc[nH]2)CC1
- IC50 [1]: 0.4 nM
- IC50 [2]: 14 nM

SMILES: c1ccc(-c2ccc(CN3CCC(c4nc5ccccc5[nH]4)CC3)cc2)cc1
- IC50 [1]: 65 nM
- IC50 [2]: 7300 nM

SMILES: NC(=O)c1ccc(-c2ccc(C(=O)N3CCC(c4nc5ccccc5[nH]4)CC3)cc2)cc1
- IC50 [1]: > 2400 nM
- IC50 [2]: > 24000 nM

SMILES: O=C(c1ccc(-c2ccccc2)[nH]c1=O)N1CCC(c2nc3ccccc3[nH]2)CC1
- IC50 [1]: 22 nM
- IC50 [2]: > 3000 nM

SMILES: O=C(c1ccc(N2CCCCC2)cc1)N1CCC(c2nc3ccccc3[nH]2)CC1
- IC50 [1]: 48 nM
- IC50 [2]: 12000 nM

SMILES: O=C(c1ccc(-c2ccccc2)cc1)N1CCC(Cc2nc3ccccc3[nH]2)CC1
- IC50 [1]: 2.3 nM
- IC50 [2]: 300 nM

SMILES: O=C(C1CCC(c2ccccc2)CC1)N1CCC(c2nc3ccccc3[nH]2)CC1 (centres undefined)
- IC50 [1]: 610 nM
- IC50 [2]: > 20000 nM

SMILES: O=C(c1ccc(-c2ccccc2)cc1)N1CC(c2nc3ccccc3[nH]2)C1
- IC50 [1]: 150 nM
- IC50 [2]: > 2800 nM

SMILES: O=C(c1ccc(-c2ccc(F)cc2)cc1)N1CCC(c2ncc[nH]2)CC1
- AUC [10]: 14000 ng·h/mL
- bioavailability [11]: 100%
- Cmax [13]: 1700 ng/mL

SMILES: O=C(c1ccc(-c2ccc(F)cc2)cc1)N1CCC(Cc2ncc[nH]2)CC1
- AUC [10]: 6500 ng·h/mL
- bioavailability [11]: 118%
- Cmax [13]: 600 ng/mL

SMILES: COc1cc(-c2ccccc2)ccc1C(=O)N1CCC(c2nc3ccccc3[nH]2)CC1
- IC50 [1]: 4 nM
- IC50 [2]: 1200 nM
